Experimental data taken from ChEMBL document CHEMBL1123692, “Dopamine autoreceptor agonists: resolution and pharmacological activity of 2,6-diaminotetrahydrobenzothiazole and an aminothiazole analogue of apomorphine” (J Med Chem, 1987).

How the values were obtained:
Rattus norvegicus [1] = experiment: Percent difference of DA utilization when compared to saline at a dose of 10 mg/kg; assay type: functional
Rattus norvegicus [2] = experiment: Utilization of DA/g by total brain without cerebellum following alpha-MT (250 mg/kg) at a dose of 10 mg/kg; assay type: functional
Rattus norvegicus [3] = experiment: Percent difference of L-DOPA accumulation when compared to saline at a dose of 10 mg/kg; assay type: functional
Rattus norvegicus [4] = experiment: Accumulation of nmol of L-DOPA/g of tissue weight corpus striatum elicited by injection of GBL and NSD at a dose of 10 mg/kg; assay type: functional
Rattus norvegicus [5] = experiment: Percent difference of L-DOPA accumulation when compared to saline at a dose of 1.0 mg/kg

Row | Structure (SMILES) | Difference (Rattus norvegicus [1]) | DA utilization (Rattus norvegicus [2]) | Difference (Rattus norvegicus [3]) | Accumulation (Rattus norvegicus [4]) | Difference (Rattus norvegicus [3]; 10 mg/kg) | Difference (Rattus norvegicus [1]; 10 mg/kg) | Accumulation (Rattus norvegicus [4]; 10 mg/kg) | DA utilization (Rattus norvegicus [2]; 10 mg/kg) | Difference (Rattus norvegicus [5])
1 | Cl.Cl.Nc1nc2c(s1)C[C@H](N)CC2 | -12% | 2441 | – | – | – | – | – | – | –
2 | CN1CCc2cccc3c2[C@H]1Cc1ccc(O)c(O)c1-3 [APOMORPHINE] | 44% | 4008 | -63% | 8.9 | – | – | – | – | –
3 | CN1CCc2cccc3c2C1Cc1sc(N)nc1-3 (racemic) | 34% | 3721 | -38% | 14.9 | – | – | – | – | –
4 | CN1CCc2cccc3c2C1Cc1sc(N)nc1-3.Cl.Cl (single isomer, unassigned; (+)) | – | – | – | – | 1% | -12% | 24.4 | 2441 | –
5 | CCCN1CCCC2Cc3nc(N)sc3CC21 (stereo unspecified) | 75% | 4863 | -62% | 9.1 | – | – | – | – | –
6 | CCCN[C@H]1CCc2nc(N)sc2C1.Cl.Cl | – | 6417 | – | 11.3 | – | – | – | – | -53%
7 | Cl.Cl.Nc1nc2c(s1)C[C@@H](N)CC2 | -17% | 2317 | – | – | – | – | – | – | –
8 | CCCN[C@@H]1CCc2nc(N)sc2C1.Cl.Cl | 84% | 5104 | – | 19 | – | – | – | – | -21%
9 | CN1CCc2cccc3c2C1Cc1sc(N)nc1-3.Cl.Cl (single isomer, unassigned; (-)) | – | – | – | – | -16% | 41% | 20.1 | 3917 | –
